Experimental data: patent US12692261B2, “Substituted heterocyclic compounds and therapeutic uses thereof” (Bayer Aktiengesellschaft, priority 2020, dated 2026)
pIC50: −log10 of the molar value. Like-named read-outs stand apart in the source and are kept apart here.

What was measured:
[1] = biological target: T1, full-length human CSNK1A1 (Homo sapiens, UniProt P48729); assay: CSNK1A1 High ATP Assay (ADP-Glo, 1 mM ATP); type: biochemical; details: Table 3, read-out: CSNK1A1 high ATP assay IC50 [mol/l] (median);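 note: 30 min kinase reaction at 22 °C with 100 µM peptide substrate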
T1 construct: N-terminal Glutathion-S-Transferase (GST) and full-length human CSNK1A1; purchased Life Technologies PV4174; host or cells: baculovirus infected insect cells
T1 sequence (P48729 whole entry): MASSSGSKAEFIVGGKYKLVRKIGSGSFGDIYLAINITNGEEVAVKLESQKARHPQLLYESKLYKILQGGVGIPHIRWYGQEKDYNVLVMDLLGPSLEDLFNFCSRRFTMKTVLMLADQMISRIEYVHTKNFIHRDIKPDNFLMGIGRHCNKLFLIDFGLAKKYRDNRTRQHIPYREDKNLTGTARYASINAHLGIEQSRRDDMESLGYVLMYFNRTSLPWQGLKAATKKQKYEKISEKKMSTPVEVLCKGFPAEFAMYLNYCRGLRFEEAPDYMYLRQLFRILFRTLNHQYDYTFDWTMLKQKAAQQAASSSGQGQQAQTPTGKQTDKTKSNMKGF
Method in brief: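 GST-tagged full-length human CSNK1A1 from baculovirus-infected insect cells (typically about 0.4 ng/μL), pre-incubated with compound 15 min at 22 °C. Reaction with biotinylated peptide biotin-Ahx-KRRRAL-pS-VASLPGL at 1 mM ATP. ADP formed read by ADP-Glo luminescence.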

[2] = biological target: T2, wild-type Epidermal Growth Factor Receptor (EGFR) (Homo sapiens, UniProt P00533); assay: WT-EGFR Kinase Assay (TR-FRET, 2 mM ATP); type: biochemical
T2 construct: a fragment of human EGFR (amino acids R669 to A1210); made in house; host or cells: Sf9 insect cells
T2 sequence (P00533 669-1210): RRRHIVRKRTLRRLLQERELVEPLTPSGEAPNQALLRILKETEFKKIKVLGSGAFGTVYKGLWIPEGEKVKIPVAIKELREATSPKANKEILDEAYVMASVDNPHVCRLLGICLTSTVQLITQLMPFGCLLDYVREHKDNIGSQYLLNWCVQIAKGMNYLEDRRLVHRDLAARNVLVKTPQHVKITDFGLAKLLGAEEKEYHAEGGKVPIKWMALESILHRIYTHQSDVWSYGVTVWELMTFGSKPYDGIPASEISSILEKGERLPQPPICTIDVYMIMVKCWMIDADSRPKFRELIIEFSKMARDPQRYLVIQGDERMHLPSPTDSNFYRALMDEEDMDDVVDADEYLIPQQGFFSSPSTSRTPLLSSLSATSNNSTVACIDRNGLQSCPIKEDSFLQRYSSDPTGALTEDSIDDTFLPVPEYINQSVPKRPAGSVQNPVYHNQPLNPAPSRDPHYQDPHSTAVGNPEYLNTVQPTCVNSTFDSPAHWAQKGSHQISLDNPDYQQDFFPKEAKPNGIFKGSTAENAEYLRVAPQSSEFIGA
Method in brief: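 GST-fused human EGFR fragment (R669-A1210) from Sf9 cells, typically 7.6 pg/μL, pre-incubated with compound 15 min at 22° C in Hepes pH 7.0 buffer with MgCl2, DTT and vanadate; biotinylated peptide substrate. After EDTA stop, phosphopeptide detected by TR-FRET (anti-phosphotyrosine Tb-cryptate/streptavidin-XL665), 665/620 nm emission ratio.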

[3] = EGFR Wildtyp 2 mM ATP IC50 [mol/l] (median), Table 4
[4] = read-out: EGFR Wildtyp 2 mM ATP IC50 [mol/l] (median), Table 4

Row | Compound | pIC50 [1] | pIC50 [2, 3] | pIC50 [2, 4]
1 | O=C(Nc1cc(-c2[nH]c3ccc(Cl)nc3c2-c2ccccn2)ccn1)C(CC(F)F)c1ccc(F)cc1 (racemic) [Example 70, (2RS)—N-{4-[5-chloro-3-(pyridin-2-yl)-1H-pyrrolo[3,2-b]pyridin-2-yl]pyridin-2-yl}-4,4-difluoro-2-(4-fluorophenyl)butanamide] | 8.27 | < 4.70 | –
2 | CN1CCN(c2cc(F)nc3c(-c4ccccn4)c(-c4ccnc(NC(=O)C(CC(F)F)c5ccc(F)cc5)c4)[nH]c23)CC1 (racemic) [Example 56, (2RS)-4,4-difluoro-N-{4-[5-fluoro-7-(4-methylpiperazin-1-yl)-3-(pyridin-2-yl)-1H-pyrrolo[3,2-b]pyridin-2-yl]pyridin-2-yl}-2-(4-fluorophenyl)butanamide] | 8.50 | < 4.70 | –
3 | O=C(Nc1cc(-c2[nH]c3c(OCC(F)F)ncnc3c2-c2ccccn2)ccn1)C(CC(F)F)c1ccc(F)cc1 (racemic) [Example 78, (2RS)—N-{4-[4-(2,2-difluoroethoxy)-7-(pyridin-2-yl)-5H-pyrrolo[3,2-d]pyrimidin-6-yl]pyridin-2-yl}-4,4-difluoro-2-(4-fluorophenyl)butanamide] | 8.29 | < 4.70 | –
4 | O=C(Nc1cc(-c2[nH]c3cc(F)cnc3c2-c2ccccn2)ccn1)C(CO)c1ccc(F)cc1 (racemic) [Example 71, (2RS)—N-(4-(6-fluoro-3-(pyridin-2-yl)-1H-pyrrolo[3,2-b]pyridin-2-yl)pyridin-2-yl)-2-(4-fluorophenyl)-3-hydroxypropanamide] | 8.09 | < 4.70 | –
5 | O=C(Nc1cc(-c2[nH]c3ncc(F)nc3c2-c2ccccn2)ccn1)C(CC(F)F)c1ccc(F)cc1 (racemic) [Example 62, (2RS)-4,4-difluoro-2-(4-fluorophenyl)-N-{4-[2-fluoro-7-(pyridin-2-yl)-5H-pyrrolo[2,3-b]pyrazin-6-yl]pyridin-2-yl}butanamide] | 8.41 | < 4.70 | –
6 | O=C(Nc1cc(-c2[nH]c3c(OCC4CCCO4)cc(F)nc3c2-c2ccccn2)ccn1)C(CC(F)F)c1ccc(F)cc1 (racemic) [Example 61, (2RS)-4,4-difluoro-N-{4-[5-fluoro-7-{[(2RS)-oxolan-2-yl]methoxy}-3-(pyridin-2-yl)-1H-pyrrolo[3,2-b]pyridin-2-yl]pyridin-2-yl}-2-(4-fluorophenyl)butanamide] | 7.95 | < 4.70 | –
7 | O=C(Nc1cc(-c2[nH]c3c(OC[C@@H]4COCCO4)cc(F)nc3c2-c2ccccn2)ccn1)C(CC(F)F)c1ccc(F)cc1 (single isomer, unassigned) [Example 59, (2R or S)—N-{4-[7-{[(2S)-1,4-dioxan-2-yl]methoxy}-5-fluoro-3-(pyridin-2-yl)-1H-pyrrolo[3,2-b]pyridin-2-yl]pyridin-2-yl}-4,4-difluoro-2-(4-fluorophenyl)butanamide] | 7.90 | – | < 4.70
8 | O=C(Nc1cc(-c2[nH]c3c(O[C@H]4CCOC4)ncnc3c2-c2ccccn2)ccn1)C(CC(F)F)c1ccc(F)cc1 (single isomer, unassigned) [Example 73, (2R or S)-4,4-difluoro-2-(4-fluorophenyl)-N-{4-[4-{[(3S)-oxolan-3-yl]oxy}-7-(pyridin-2-yl)-5H-pyrrolo[3,2-d]pyrimidin-6-yl]pyridin-2-yl}butanamide] | 8.38 | < 4.70 | –
9 | O=C(Nc1cc(-c2[nH]c3ccnnc3c2-c2ccccn2)ccn1)C(CC(F)F)c1ccc(F)cc1 (single isomer, unassigned) [Example 67, (2R or S)-4,4-difluoro-2-(4-fluorophenyl)-N-{4-[7-(pyridin-2-yl)-5H-pyrrolo[3,2-c]pyridazin-6-yl]pyridin-2-yl}butanamide] | 7.66 | – | < 4.70
10 | O=C(Nc1cc(-c2[nH]c3c(OC[C@@H]4COCCO4)cc(F)nc3c2-c2ccccn2)ccn1)C(CC(F)F)c1ccc(F)cc1 (single isomer, unassigned) [Example 58, (2R or S)—N-{4-[7-{[(2S)-1,4-dioxan-2-yl]methoxy}-5-fluoro-3-(pyridin-2-yl)-1H-pyrrolo[3,2-b]pyridin-2-yl]pyridin-2-yl}-4,4-difluoro-2-(4-fluorophenyl)butanamide] | 8.45 | < 4.70 | –
11 | O=C(Nc1cc(-c2[nH]c3c(O[C@H]4CCOC4)ncnc3c2-c2ccccn2)ccn1)C(CC(F)F)c1ccc(F)cc1 (single isomer, unassigned) [Example 74, (2R or S)-4,4-difluoro-2-(4-fluorophenyl)-N-{4-[4-{[(3S)-oxolan-3-yl]oxy}-7-(pyridin-2-yl)-5H-pyrrolo[3,2-d]pyrimidin-6-yl]pyridin-2-yl}butanamide] | 7.45 | – | < 4.70
12 | O=C(Nc1cc(-c2[nH]c3ncc(F)nc3c2-c2ccccn2)ccn1)C(CC(F)F)c1ccc(F)cc1 (single isomer, unassigned) [Example 64, (2R or S)-4,4-difluoro-2-(4-fluorophenyl)-N-{4-[2-fluoro-7-(pyridin-2-yl)-5H-pyrrolo[2,3-b]pyrazin-6-yl]pyridin-2-yl}butanamide] | 7.64 | – | < 4.70
13 | COc1cnc2c(-c3ccccn3)c(-c3ccnc(NC(=O)C(CC(F)F)c4ccc(F)cc4)c3)[nH]c2c1 (single isomer, unassigned) [Example 82, 4,4-difluoro-2-(4-fluorophenyl)-N-{4-[6-methoxy-3-(pyridin-2-yl)-1H-pyrrolo[3,2-b]pyridin-2-yl]pyridin-2-yl}butanamide] | 8.57 | < 4.70 | –
14 | O=C(Nc1cc(-c2[nH]c3cc(Cl)cnc3c2-c2ccccn2)ccn1)C(CC(F)F)c1ccc(F)cc1 (single isomer, unassigned) [Example 88, (+)—N-{4-[6-chloro-3-(pyridin-2-yl)-1H-pyrrolo[3,2-b]pyridin-2-yl]pyridin-2-yl}-4,4-difluoro-2-(4-fluorophenyl)butanamide] | 8.33 | < 4.70 | –
15 | O=C(Nc1cc(-c2[nH]c3c(OCC(F)F)ncnc3c2-c2ccccn2)ccn1)C(CC(F)F)c1ccc(F)cc1 (single isomer, unassigned) [Example 80, (2R or S)—N-{4-[4-(2,2-difluoroethoxy)-7-(pyridin-2-yl)-5H-pyrrolo[3,2-d]pyrimidin-6-yl]pyridin-2-yl}-4,4-difluoro-2-(4-fluorophenyl)butanamide] | 7.77 | – | < 4.70
